Data reported in US20090258836A1, “EFFECTIVE DELIVERY OF CROSS-SPECIES A3 ADENOSINE-RECEPTOR ANTAGONISTS TO REDUCE INTRAOCULAR PRESSURE” (The Trustees of The University of Pennsylvania, priority 2006, published 2009).
Entries after “also recorded” stand apart in the source; their conditions may differ.

What was measured:
[1] = tested on: HCE (human ciliary epithelial) cell line, NPE cells; assay: Cell volume in isosmotic solution (isosmotic shrinkage), Coulter Counter; type: cell-based
Method: Cell Culture The HCE (human ciliary epithelial) cell line (Carre et al., supra, 1997) is an immortalized NPE cell line obtained from primary cultures of adult human epithelium. […] Eye Res. 57:3057-3063 (1993); Yantorno et al., Exp. Eye Res. 49:423-437 (1989)). […] Cells were passaged every 6-7 days and were studied 8-13 days after passage, after reaching confluence. An immortalized PE-cell line from a primary culture of bovine pigmented ciliary epithelium were also grown under matching conditions. Measurement of Cell Volume in Isosmotic Solution: The volume of PE and NPE cells was measured, since the movement of fluid underlies a change in PE and NPE cell volume, respectively. This is also thought to be the same as the movement of fluid which underlines the secretion of aqueous humor (FIG. 1). […] Parallel aliquots of cells were studied on the same day. One aliquot usually served as a control, and the others were exposed to different experimental conditions at the time of suspension. The same amount of solvent vehicle (dimethylformamide, DMSO or ethanol) was always added to the control and experimental aliquots. […] Cell volumes of isosmotic suspensions were measured with a Coulter Counter (model ZBI-Channelyzer II), using a 100 μm aperture (Civan et al., supra, 1994). As previously described (Wax et al., supra, 1993), the cell volume (vC) of the suspension was taken as the peak of the distribution function. Cell shrinkage was fit as a function of time (t) to a monoexpenential function: […]^0^)/τ] {1) where v∞ is the steady-state cell volume, v0 is the cell volume at the first point (t0) of the time course to be fit, and τ is the time constant of the shrinkage. For purposes of data reduction, the data were normalized to the first time point, taken to be 100% isotonic volume. Fits were obtained by nonlinear least-squares regression analysis, permitting both v∞ and τ to be variables. […] Med. Chem. 37:636-646 (1994; Jacobson et al., supra, 1995; Jacobson et al., FEBS Lett. 336:57-60 (1993)).

mouse IOP [2] = assay: Mouse IOP monitored with SNMS, protocols of Yang et al. 2005; type: in vivo
Method: Pharmacol. 65:1675-1684 (2003)), is effective both in blocking adenosine-triggered shrinkage of cultured human NPE cells and in lowering IOP of mice (Yang et al., supra, 2005). MRS-1292 was tested on the mouse for two reasons. Transgenic mice provide a convenient opportunity for studying the molecular physiology and pharmacology in the living animal ([…] al., supra, 2003). Second, measurement of IOP permitted us to assess the effects of MRS-1292 on the target parameter. […] Therefore, to directly assess the effect of MRS-1292 in vivo in the mouse, IOP was monitored before and after drug application. IOP was monitored with the Servo-Null-Micropipette System (SNMS). The test protocols are described in detail by Yang et al. supra, 2005, herein incorporated by reference. […] In comparison, addition of the same volume of saline at the same osmolality produced no significant change in IOP (-0.3±1.2 mmHg, n=6, p>0.8) 14 min later. […] To estimate an approximate range, “penetrance” was defined by Yang et al. as the ratio of the published Ki value at receptors in vitro to the minimally effective droplet concentration, for a number of adenosine agonists and antagonists. Thus, penetrance ranges from 1:100 to 1:1000 for purinergic drugs that have been tested in the mouse, and it is not very different from the drug penetrance of 1:100 for agents applied topically to rabbits and primates. This rule of thumb also applies to acylguanidine blockers and bumetanide, whose topical effects have also been studied in the mouse eye. Thus, the approximately 1:1000 penetrance that Yang et al. reported in the 2003 citation for MRS 1292 in the present experiments is consistent with past studies

[3] = tested on: intact rabbit ciliary epithelium; assay: Short-circuit current across intact rabbit ciliary epithelium (iris-ciliary body); settings: 30 μM IB-MECA, 5 mM Ba2+, solvent-corrected
Method: As an initial step in data analysis, 20-min period of baseline current just before addition of any agent was fit by linear least-squares analysis. The line generated by that analysis was extrapolated to a point 45 min beyond introduction of that agent. Each current response was subtracted from its respective extrapolated baseline to yield a common initial baseline approximating constant zero current. All recordings were placed in register relative to time of agent introduction (time 0). Records of control (solvent), IB-MECA with solvent, and B-MECA corrected for solvent were separately averaged. […]
Transepithelial Measurements: In animal experiments, preferably rabbits, after anesthetization and sacrifice (Carre et al., J. Membr. Biol. 146:293-305 (1995), the iris-ciliary body (1-CB) was enucleated and isolated as described by Carre et al., 1995. In one experiment, the pupil and central iris were occluded with a Lucite disc, and the iris-ciliary body was mounted between the two halves of a Lucite chamber. The annulus of exposed tissue provided a projected surface area of 0.93 cm^2. Preparations were continuously bubbled with 95%O2-5% CO2 for maintenance of pH 7.4 in a Ringer's solution comprising (in mM): 110.0 NaCl, 10.0 HEPES (acid), 5.0 HEPES (Na^+), 30.0 NaHCO3, 2.5 CaCl2, 1.2 MgCl2, 5.9 KCl, and 10.0 glucose, at an osmolality of 305 mOsm. […]

mouse IOP [4] = assay: Mouse IOP after topical application, non-invasive pneumotonometry; type: in vivo, Black Swiss mice
Method: (§1) The test animals were black Swiss outbred mice of mixed sex, 7-9 weeks old and 25-30 g in weight, obtained from Taconic Inc. (Germantown, N.Y.), and maintained under 12:12-h light/dark illumination cycle and allowed unrestricted access to food and water. Mice were anesthetized with intraperitoneal ketamine ([…]) supplemented by topical proparacaine HCl 0.5% (Allergan, Bausch & Lomb) for the IOP measurements. IOP was measured invasively (SNMS) and non-invasively by pneumotonometry in separate animals.
By comparison, IOP was measured non-invasively by pneumotonometry (OBT) (Avila et al., supra, 2005). As previously described, the commercially available tip of the ocular blood tomography (OBT) pneumotonometer (Blood Flow Analyzer [BFA] probe tip; Paradigm Medical Industries Inc.) was fit to a custom-built mount. Air flow from a constant pressure source was passed through the mount to reach a diaphragm forming the end of the BFA tip. The flow of air displaces the diaphragm outward, permitting escape of the air through holes in the wall of the probe tip into the atmosphere. Pressure was monitored with a transducer connected through a T-connection to the base of the BFA tip. The probe assembly was advanced to the cornea with a three-axis micromanipulator. The probe tip was advanced sufficiently to make contact with the tear film, as was indicated by a shift in the baseline output reading. In a refined method, the tip was withdrawn until the […] was visually displaced from the tear film. The output was then adjusted to zero before advancing the tip again. Contact with the cornea depresses the diaphragm of the BFA tip, occluding access of the air flow to the escape holes and raising the pressure at the base of the tip.
This approach was simplified to expedite identification of the endpoint, and the probe was subsequently advanced in about 10 standardized steps of approximately […] at intervals of about 10 seconds to identify the inflection region (Wang et al., supra, 2006). […] The pneumotonometric estimates of IOP were previously found to agree with manometric measurements in cannulated preparations and with estimates obtained by the servo-null technique (Avila et al., supra, 2005). Having established the baseline value of IOP, the position along the axis of advance of the micromanipulator was noted, and the probe was retracted from contact with the cornea. Subsequent measurements of IOP at later time points were obtained by advancing the probe tip to the same position, with the placement of the mouse maintained stereotactically. The measurements were conducted at 10-min intervals to avoid potential artifacts associated with prolonged pressure on the cornea.
(§2) Ketamine HCl was purchased from Phoenix Pharmaceutical Inc. (St. Joseph, Mo.). Other drugs were obtained from Sigma Chemical (St. Louis, Mo.). Drugs were applied topically with an Eppendorf pipette. […] The final droplet solution contained the drugs at the stated concentrations together with <2% DMSO and 0.0005% benzalkonium chloride at an osmolality of 295-300 mOsm. DMSO was omitted, altogether, from droplets containing the hydrophilic compounds adenosine, carbachol and carboxyfluorescein.
(§3) Effects on invasively-measured IOP were measured 10 min after topical application because after this time, the continued presence of the micropipette can be associated with a downward drift of the IOP, even under control conditions. In contrast, smaller droplets ([…]) were applied to the eye more frequently (three times instead of once) with the non-invasive technique, in order to forestall drying of the eye associated with the airflow from the pneumotonometer. With the non-invasive protocol, the IOP was stable for 30 min under control conditions.
In Table 1, an endpoint of 10 minutes was used for the invasive measurements in light of the above-discussed downward drift of the IOP, even under control conditions. […]

[5] = tested on: C57 mouse intraocular pressure; assay: C57 mouse intraocular pressure, invasive servo-null technique; type: in vivo, C57 mice
mouse IOP [6] = assay: Mouse IOP after topical application, invasive servo-null micropipette system (SNMS); type: in vivo, Black Swiss mice
Method: as §1
By the SNMS approach (Avila et al., supra, 2001), the exploring micropipette, of […] outer diameter, was filled with a highly conducting solution and advanced across the cornea into the anterior chamber. A refined technique by Wang et al., Invest. Opthalmol. Vis. Sci. (serial online) (Aug. 31, 2006) available at www.iovs.org/egi/letters/46/9/3274#422, enhanced stability and reduce the background noise of the records, permitting fabrication of micropipettes whose resistance is 0.1-0.3 MΩ, rather than the 0.25-0.4 MΩ used initially. The filling solution was reduced from 3M KCl to 2M NaCl, rather than 3 M KCl. The resistance of the filled micropipette was balanced in a bridge circuit, and the tip was then advanced across the cornea. Upon entering the anterior chamber of the eye, the IOP forces the much lower-conducting aqueous humor into the micropipette tip, displacing the original filling solution. The micropipette resistance was thereby increased, unbalancing the bridge circuit and triggering a bellows to provide a counter-pressure, restoring the position of the filling solution and returning the resistance to its initial value. Thus, the value of the counter-pressure equals the IOP. As in the past (Avila et al., supra, 2001), the stability of the records permitted continuous measurements for tens of minutes during the course of drug applications.
as §2, §3
In Table 1, an endpoint of 10 minutes was used for the invasive measurements in light of the above-discussed downward drift of the IOP, even under control conditions. Also the need for smaller, more frequent droplets are discussed above with regard to the non-invasive technique using the pneumotonometer. As above, with the non-invasive protocol, the IOP was stable for 30 minutes under control conditions.

SMILES | τ time constant of the shrinkage ([1]; 100 nM) [min] | v∞ steady-state cell volume ([1]; 100 nM, normalized to first time point as 100% isotonic volume) [%] | effect of agonist on isosmotic volume of NPE cells ([1]; agonist 100 nM) | Kd ([1]; in the presence of gramicidin, read-out: apparent Kd for the IB-MECA-induced shrinkage) [µM] | increase in IOP (mouse IOP [2]; 140 nM) [mmHg] | increase in IOP (mouse IOP [2]; 10-fold lower concentration than 140 nM) [mm Hg] | change in IOP (mouse IOP [2]; droplet concentration 1400 nM) [mmHg] | effect on short-circuit current [3] | effect on mouse IOP measured non-invasively (in words) (mouse IOP [4]; pneumotonometry, topical, MRS-3833 at 200 nM) | Δ(IOP) Pneumotonometer (mouse IOP [4]; topical droplets 250 μM (2% DMSO), 30 min) | IOP with MRS3771 ([5]; Mean ± SEM of 6 experiments) [mm Hg] | change in IOP ([5]; Mean ± SEM of 6 experiments) [mm Hg] | lowering of IOP of C57 mice ([5]; topical, N=6) [mm Hg] | effect on mouse IOP measured invasively (in words) (mouse IOP [6]; servo-null, topical) | effect on IOP in the mouse (in words) (mouse IOP [6]; tested by the inventors, technique not given) | Δ(IOP) Servo-Null (mouse IOP [6]; topical droplet 250 μM (2% DMSO), endpoint 10 min) [mm Hg]
CNC(=O)[C@H]1O[C@@H](n2cnc3c(NCc4cccc(I)c4)ncnc32)[C@H](O)[C@@H]1O [IB-MECA, N^6-(3-iodobenzyl)-adenosine-5′-N-methyluronamide] | 4.5 ± 0.6 | 95.6±0.2 | produced prompt shrinkage | 0.055 | 4.6±1.6 | 2.2±0.5 | −1.2±1.9 | increased the short circuit current; also recorded: produced a significant increase in the short-circuit current |  |  |  |  |  |  |  | 
CN(C)C(=O)[C@H]1O[C@@H](n2cnc3c(NCc4cccc(I)c4)nc(Cl)nc32)[C@H](O)[C@@H]1O [MRS-3771] |  |  |  |  |  |  |  |  | exerted no effect on IOP | +0.4 ± 0.6 mm Hg | 13.2 ± 1.6 | −3.3 ± 0.6 | 3.3±0.6 | effective in lowering mouse IOP | found to lower IOP in the mouse | −3.0 ± 1.1
